T1: PtNAD-ME3 (Populus trichocarpa, UniProt B9GPX3)
T1 construct: gene POPTR_002G156000; mature form without mitochondrial signal peptide; pGEX-6p-3, N-terminal GST cut with PreScission; E. coli BL21; about 61 kDa on SDS-PAGE
T1 sequence (B9GPX3 23-607): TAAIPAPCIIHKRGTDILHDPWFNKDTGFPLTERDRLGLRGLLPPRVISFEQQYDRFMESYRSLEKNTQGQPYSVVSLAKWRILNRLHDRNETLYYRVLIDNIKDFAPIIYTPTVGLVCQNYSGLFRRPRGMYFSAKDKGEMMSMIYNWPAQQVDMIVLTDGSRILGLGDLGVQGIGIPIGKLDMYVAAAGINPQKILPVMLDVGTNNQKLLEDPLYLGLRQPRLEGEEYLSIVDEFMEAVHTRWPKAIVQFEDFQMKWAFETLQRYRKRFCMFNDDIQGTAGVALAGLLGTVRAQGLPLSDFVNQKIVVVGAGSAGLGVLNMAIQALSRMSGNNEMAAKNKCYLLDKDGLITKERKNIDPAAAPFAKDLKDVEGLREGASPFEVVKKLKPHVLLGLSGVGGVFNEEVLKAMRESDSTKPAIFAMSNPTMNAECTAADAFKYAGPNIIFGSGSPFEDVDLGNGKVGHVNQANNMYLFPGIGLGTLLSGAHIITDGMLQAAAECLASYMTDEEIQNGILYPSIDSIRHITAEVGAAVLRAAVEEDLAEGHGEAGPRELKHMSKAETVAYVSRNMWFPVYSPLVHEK

T2: PtNAD-ME2 (Populus trichocarpa, UniProt B9MVC4)
T2 construct: gene POPTR_014G043700; mature form without mitochondrial signal peptide; pGEX-6p-3, N-terminal GST cut with PreScission; E. coli BL21
T2 sequence (B9MVC4 36-627): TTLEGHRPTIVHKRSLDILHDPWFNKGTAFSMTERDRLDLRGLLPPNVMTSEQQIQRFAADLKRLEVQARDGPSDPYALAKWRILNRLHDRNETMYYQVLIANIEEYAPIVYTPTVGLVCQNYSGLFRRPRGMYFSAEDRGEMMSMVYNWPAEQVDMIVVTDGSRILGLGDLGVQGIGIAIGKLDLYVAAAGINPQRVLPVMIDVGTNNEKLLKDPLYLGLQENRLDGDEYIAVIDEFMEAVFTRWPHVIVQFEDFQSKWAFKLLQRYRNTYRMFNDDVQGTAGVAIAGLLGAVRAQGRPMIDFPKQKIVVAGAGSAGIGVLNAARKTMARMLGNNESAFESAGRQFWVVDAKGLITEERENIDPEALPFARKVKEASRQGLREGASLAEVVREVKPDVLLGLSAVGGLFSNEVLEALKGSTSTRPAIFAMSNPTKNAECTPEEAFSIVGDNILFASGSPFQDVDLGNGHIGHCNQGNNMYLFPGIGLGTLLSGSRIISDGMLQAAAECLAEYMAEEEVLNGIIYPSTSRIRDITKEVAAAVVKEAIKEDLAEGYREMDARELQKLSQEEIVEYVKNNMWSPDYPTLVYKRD

T3: PtNAD-ME4 (Populus trichocarpa, UniProt A0A2K1XS69)
T3 construct: gene POPTR_014G079900; mature form without mitochondrial signal peptide; pGEX-6p-3, N-terminal GST cut with PreScission; E. coli BL21
T3 sequence (A0A2K1XS69 22-607): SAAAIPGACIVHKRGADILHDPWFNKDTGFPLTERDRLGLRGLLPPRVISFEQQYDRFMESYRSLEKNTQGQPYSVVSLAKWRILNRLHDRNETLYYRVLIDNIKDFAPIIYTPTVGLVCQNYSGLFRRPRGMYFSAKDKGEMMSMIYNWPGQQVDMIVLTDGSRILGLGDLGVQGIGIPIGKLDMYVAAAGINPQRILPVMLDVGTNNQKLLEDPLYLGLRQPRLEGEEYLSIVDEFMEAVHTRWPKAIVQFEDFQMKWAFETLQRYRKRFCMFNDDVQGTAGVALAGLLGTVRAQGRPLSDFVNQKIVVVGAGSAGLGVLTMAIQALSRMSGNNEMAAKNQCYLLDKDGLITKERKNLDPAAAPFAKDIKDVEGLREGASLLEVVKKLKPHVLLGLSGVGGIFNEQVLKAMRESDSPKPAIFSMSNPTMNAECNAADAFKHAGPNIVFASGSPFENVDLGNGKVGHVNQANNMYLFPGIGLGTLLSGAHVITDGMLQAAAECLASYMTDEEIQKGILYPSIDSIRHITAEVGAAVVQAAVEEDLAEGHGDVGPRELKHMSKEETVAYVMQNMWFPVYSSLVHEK

T4: PtNAD-ME1 (Populus trichocarpa, UniProt A0ACC0TE46)
T4 construct: gene POPTR_002G135300v4; mature form without mitochondrial signal peptide; pGEX-6p-3, N-terminal GST cut with PreScission; E. coli BL21; about 67 kDa on SDS-PAGE; EC 1.1.1.39
T4 sequence (A0ACC0TE46 34-627): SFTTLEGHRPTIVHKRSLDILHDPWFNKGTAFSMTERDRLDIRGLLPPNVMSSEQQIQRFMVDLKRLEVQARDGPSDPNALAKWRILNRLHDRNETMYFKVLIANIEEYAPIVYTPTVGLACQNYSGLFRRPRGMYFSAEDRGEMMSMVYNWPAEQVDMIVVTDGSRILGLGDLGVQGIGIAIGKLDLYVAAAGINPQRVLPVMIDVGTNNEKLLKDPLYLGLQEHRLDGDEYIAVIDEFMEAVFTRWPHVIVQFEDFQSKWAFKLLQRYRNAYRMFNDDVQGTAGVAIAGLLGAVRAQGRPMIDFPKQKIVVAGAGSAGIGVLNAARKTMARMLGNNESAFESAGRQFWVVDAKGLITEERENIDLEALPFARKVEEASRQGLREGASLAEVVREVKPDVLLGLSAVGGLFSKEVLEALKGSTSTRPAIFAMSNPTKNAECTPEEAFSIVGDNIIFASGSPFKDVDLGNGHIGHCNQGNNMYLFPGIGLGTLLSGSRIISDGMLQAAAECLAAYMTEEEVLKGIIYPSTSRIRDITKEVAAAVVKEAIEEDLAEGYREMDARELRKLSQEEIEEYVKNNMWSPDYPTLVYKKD

B1: PtNAD-ME3 (Populus trichocarpa) (protein)
chain: TAAIPAPCIIHKRGTDILHDPWFNKDTGFPLTERDRLGLRGLLPPRVISFEQQYDRFMESYRSLEKNTQGQPYSVVSLAKWRILNRLHDRNETLYYRVLIDNIKDFAPIIYTPTVGLVCQNYSGLFRRPRGMYFSAKDKGEMMSMIYNWPAQQVDMIVLTDGSRILGLGDLGVQGIGIPIGKLDMYVAAAGINPQKILPVMLDVGTNNQKLLEDPLYLGLRQPRLEGEEYLSIVDEFMEAVHTRWPKAIVQFEDFQMKWAFETLQRYRKRFCMFNDDIQGTAGVALAGLLGTVRAQGLPLSDFVNQKIVVVGAGSAGLGVLNMAIQALSRMSGNNEMAAKNKCYLLDKDGLITKERKNIDPAAAPFAKDLKDVEGLREGASPFEVVKKLKPHVLLGLSGVGGVFNEEVLKAMRESDSTKPAIFAMSNPTMNAECTAADAFKYAGPNIIFGSGSPFEDVDLGNGKVGHVNQANNMYLFPGIGLGTLLSGAHIITDGMLQAAAECLASYMTDEEIQNGILYPSIDSIRHITAEVGAAVLRAAVEEDLAEGHGEAGPRELKHMSKAETVAYVSRNMWFPVYSPLVHEK
notes: mature form without mitochondrial signal peptide; pGEX-6p-3, N-terminal GST cut with PreScission; E. coli BL21; about 61 kDa on SDS-PAGE

What was measured:
[1] = target: T1, PtNAD-ME3; experiment: inhibition of malate decarboxylation, NADH at […] nm; format: biochemical; details: inhibitor; nonsaturating malate, saturating NAD, optimum pH 7.4
[2] = target: T2, PtNAD-ME2; experiment: inhibition of malate decarboxylation, NADH at […] nm; format: biochemical; details: inhibitor; nonsaturating malate, saturating NAD, optimum pH 7.2
[3] = target: T3, PtNAD-ME4; experiment: inhibition of malate decarboxylation, NADH at […] nm; format: biochemical; details: inhibitor; nonsaturating malate, saturating NAD, optimum pH 7.4
[4] = target: T4, PtNAD-ME1; experiment: inhibition of malate decarboxylation, NADH at […] nm; format: biochemical; details: inhibitor; nonsaturating malate, saturating NAD, optimum pH 7.2
[5] = substrate: O=C(O)C[C@H](O)C(=O)O; experiment: purified protein; format: biochemical, Populus trichocarpa; details: saturating NAD, 10 mM MnCl2, 150 mM Mes/NaOH, optimum pH 7.4
[6] = substrate: NC(=O)c1ccc[n+]([C@@H]2O[C@H](COP(=O)(O)OP(=O)(O)OC[C@H]3O[C@@H](n4cnc5c(N)ncnc54)[C@H](O)[C@@H]3O)[C@@H](O)[C@H]2O)c1; experiment: purified protein; format: biochemical, Populus trichocarpa; details: saturating malate, 10 mM MnCl2, 150 mM Mes/NaOH, optimum pH 7.4

Molecule | % activity [1] | % activity [2] | % activity [3] | % activity [4] | Km [5] [µM] | Km [6] [µM] | kcat [6] [s⁻¹] | kcat/Km [6] [M⁻¹ s⁻¹]
O=C(O)CC(O)(CC(=O)O)C(=O)O [citrate] | OAA and citrate inhibited the activities of all | OAA and citrate inhibited the activities of all | OAA and citrate inhibited the activities of all | OAA and citrate inhibited the activities of all | – | – | – | –
O=C(O)CC(=O)C(=O)O [oxalacetate] | OAA and citrate inhibited the activities of all | OAA and citrate inhibited the activities of all | OAA and citrate inhibited the activities of all | OAA and citrate inhibited the activities of all | – | – | – | –
B1 | – | – | – | – | 1300 | 450 | 1.3 | 2900

From publication PMC3742170, “Enzymatic Properties of Populus α- and β-NAD-ME Recombinant Proteins” (International Journal of Molecular Sciences, 2013)
